Results taken from ChEMBL document CHEMBL1201862, “PubChem BioAssay data set” (2004).
The source made the active and inactive calls.

How the values were obtained:
[1] = Luminescence-based cell-based high throughput dose response assay to identify activators of the DAF-12 from the parasite S. stercoralis (ssDAF-12).; type: functional
[2] = biological target: T1, Oxysterols receptor LXR-beta (Homo sapiens, UniProt P55055); experiment: LXR agonists, Gal4 luciferase reporter, dose response, counter-screen for ssDAF-12 agonist project, cell-based, luminescence, HEK293, S. stercoralis campaign (AID 720737); type: functional; settings: read-out: IC50 (the source's name)
T1 sequence (P55055 whole entry): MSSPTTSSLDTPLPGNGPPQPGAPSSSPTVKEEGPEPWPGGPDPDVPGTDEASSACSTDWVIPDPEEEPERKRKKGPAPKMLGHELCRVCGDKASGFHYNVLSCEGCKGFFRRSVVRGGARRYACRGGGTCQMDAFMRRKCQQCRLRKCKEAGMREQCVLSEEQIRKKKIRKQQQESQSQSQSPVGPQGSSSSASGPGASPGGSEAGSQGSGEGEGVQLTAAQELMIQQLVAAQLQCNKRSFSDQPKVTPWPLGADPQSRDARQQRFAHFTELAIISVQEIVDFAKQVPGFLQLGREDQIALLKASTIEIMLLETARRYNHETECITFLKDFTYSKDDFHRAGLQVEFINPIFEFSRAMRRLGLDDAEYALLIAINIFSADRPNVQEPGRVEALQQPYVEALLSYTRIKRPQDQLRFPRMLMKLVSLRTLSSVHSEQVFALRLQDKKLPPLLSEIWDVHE

[3] = biological target: DNA repair protein RAD52 homolog (Homo sapiens, UniProt P43351); type: functional, biochemical
DNA repair protein RAD52 homolog, sequence (P43351 whole entry): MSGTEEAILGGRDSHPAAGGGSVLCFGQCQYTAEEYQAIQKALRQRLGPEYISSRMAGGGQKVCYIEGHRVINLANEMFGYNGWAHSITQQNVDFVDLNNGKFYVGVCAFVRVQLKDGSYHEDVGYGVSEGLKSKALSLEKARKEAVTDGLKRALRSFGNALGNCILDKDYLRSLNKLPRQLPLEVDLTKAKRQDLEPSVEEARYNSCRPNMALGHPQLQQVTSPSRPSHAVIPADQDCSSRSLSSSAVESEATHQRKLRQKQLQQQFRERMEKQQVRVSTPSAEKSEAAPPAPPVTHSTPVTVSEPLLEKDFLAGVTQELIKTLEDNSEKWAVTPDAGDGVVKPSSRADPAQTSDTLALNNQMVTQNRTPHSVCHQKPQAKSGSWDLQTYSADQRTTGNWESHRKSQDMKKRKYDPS

[4] = biological target: T2, DNA repair and recombination protein RAD54-like (Homo sapiens, UniProt Q92698); experiment: inhibitors of human RAD54 branch migration, confirmation, biochemical, fluorescence, cherry-picked samples, dose series (AID 651657); type: functional
T2 sequence (Q92698 whole entry): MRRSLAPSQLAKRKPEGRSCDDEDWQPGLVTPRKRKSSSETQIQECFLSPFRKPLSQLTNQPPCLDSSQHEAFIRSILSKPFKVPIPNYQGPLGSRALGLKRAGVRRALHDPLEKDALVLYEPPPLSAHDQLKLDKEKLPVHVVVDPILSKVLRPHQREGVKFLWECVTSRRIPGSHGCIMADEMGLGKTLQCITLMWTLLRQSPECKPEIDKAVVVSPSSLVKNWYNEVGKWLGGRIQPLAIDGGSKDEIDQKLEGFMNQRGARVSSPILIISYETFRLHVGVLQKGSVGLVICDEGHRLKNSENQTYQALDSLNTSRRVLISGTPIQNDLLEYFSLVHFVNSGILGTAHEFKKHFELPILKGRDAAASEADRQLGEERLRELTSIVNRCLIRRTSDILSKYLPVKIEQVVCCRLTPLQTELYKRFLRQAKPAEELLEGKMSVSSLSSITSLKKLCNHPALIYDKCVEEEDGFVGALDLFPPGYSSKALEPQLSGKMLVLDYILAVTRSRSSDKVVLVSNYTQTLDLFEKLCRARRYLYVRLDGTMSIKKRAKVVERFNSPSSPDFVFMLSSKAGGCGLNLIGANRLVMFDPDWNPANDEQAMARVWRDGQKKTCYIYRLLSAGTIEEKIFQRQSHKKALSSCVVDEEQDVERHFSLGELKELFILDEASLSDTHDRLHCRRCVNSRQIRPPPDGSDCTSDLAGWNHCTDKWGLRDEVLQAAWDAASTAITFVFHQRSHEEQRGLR

[5] = biological target: Luciferin 4-monooxygenase (Photinus pyralis, UniProt P08659); experiment: firefly luciferase enzyme inhibitors, dose response, biochemical, luminescence (AID 1891)
Luciferin 4-monooxygenase, sequence (P08659 whole entry): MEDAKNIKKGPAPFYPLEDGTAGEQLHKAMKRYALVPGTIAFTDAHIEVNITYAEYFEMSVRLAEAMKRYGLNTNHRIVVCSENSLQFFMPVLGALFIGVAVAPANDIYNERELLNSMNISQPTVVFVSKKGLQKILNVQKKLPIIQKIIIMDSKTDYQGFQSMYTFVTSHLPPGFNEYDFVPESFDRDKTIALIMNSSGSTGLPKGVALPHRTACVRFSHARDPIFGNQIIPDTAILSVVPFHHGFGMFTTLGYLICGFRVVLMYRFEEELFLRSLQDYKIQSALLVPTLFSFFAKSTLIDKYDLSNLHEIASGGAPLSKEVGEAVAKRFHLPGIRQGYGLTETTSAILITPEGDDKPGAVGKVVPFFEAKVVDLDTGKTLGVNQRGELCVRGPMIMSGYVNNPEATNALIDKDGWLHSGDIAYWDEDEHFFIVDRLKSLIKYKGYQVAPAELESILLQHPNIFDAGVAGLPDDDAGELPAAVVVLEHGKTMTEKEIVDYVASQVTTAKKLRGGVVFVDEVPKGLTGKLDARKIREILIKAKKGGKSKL

[6] = MC4R antagonists, dose response, counter-screen for LGR2 antagonist project, cell-based, plate reader, cherry pick (AID 743444); type: functional;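 note: transfected HEK 293 cells stimulated with alpha-MSH peptide; potency of inhibitors of the alpha-MSH evoked signal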
[7] = biological target: T1, Oxysterols receptor LXR-beta; type: functional, cell-based
[8] = HepG2 cell cytotoxicity, dose response, cytotoxicity control, plate reader, cherry-pick, antagonist series (AID 743416); type: functional, cell-based
[9] = Luminescence Cell-Based Dose Confirmation HTS to Identify Inhibitors of Platelet Dense Granule Release. [Related pubchem assays: 1663 (Primary HTS), 1678 (Summary of Project)]; type: functional
[10] = biological target: T3, Protein skinhead-1 (Caenorhabditis elegans, UniProt P34707); type: functional
T3 sequence (P34707 whole entry): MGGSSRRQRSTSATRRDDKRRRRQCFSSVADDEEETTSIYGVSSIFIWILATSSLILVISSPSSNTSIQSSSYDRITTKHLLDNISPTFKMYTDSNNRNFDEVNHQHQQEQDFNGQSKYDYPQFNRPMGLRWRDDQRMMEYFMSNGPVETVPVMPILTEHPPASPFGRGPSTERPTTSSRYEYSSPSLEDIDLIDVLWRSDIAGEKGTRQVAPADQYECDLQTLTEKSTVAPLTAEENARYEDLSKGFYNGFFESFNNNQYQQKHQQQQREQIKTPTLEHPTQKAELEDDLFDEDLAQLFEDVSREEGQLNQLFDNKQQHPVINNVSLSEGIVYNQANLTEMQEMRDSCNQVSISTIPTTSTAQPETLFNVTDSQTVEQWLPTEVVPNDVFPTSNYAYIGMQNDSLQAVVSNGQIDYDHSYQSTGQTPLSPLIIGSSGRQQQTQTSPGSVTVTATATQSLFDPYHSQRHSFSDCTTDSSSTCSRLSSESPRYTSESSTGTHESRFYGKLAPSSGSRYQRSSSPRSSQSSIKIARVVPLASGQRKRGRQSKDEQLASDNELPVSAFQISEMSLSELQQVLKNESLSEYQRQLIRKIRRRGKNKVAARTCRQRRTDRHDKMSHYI

[11] = cells
[12] = LGR2 antagonists, dose response, cell-based, HEK293, CRE-luciferase reporter, cherry pick, set 2 (AID 743343); type: functional;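 note: transfected cells were stimulated with diluted bursicon conditioned medium after compound addition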
[13] = biological target: T1, Oxysterols receptor LXR-beta; type: functional, cell-based; remark: listed apart in the source
[14] = Luminescence Cell-Based Dose Response HTS to Identify Inhibitors of 5'UTR Stem-Loop Driven Prion Protein mRNA Translation in H4 Neuroglioblastoma Cells. [Related pubchem assays: 1827 (Project Summary), 1813 (Primary HTS)]; type: functional
[15] = IGROV1 ovarian cancer cell cytotoxicity, dose response, PAX8 inhibitor project, plate reader, dry powder samples (AID 743043); type: functional, cell-based; settings: IGROV-1
[16] = cytotoxicity in OVCAR8 ovarian cancer cells, dose response, PAX8 project, cell-based, plate reader, dry powder samples (AID 743197); type: functional; settings: OVCAR-8
[17] = non-specific cell cytotoxicity, dose response, cytotoxicity control for PAX8 inhibitor project, plate reader, dry powder samples (AID 743021); type: functional, cell-based
[18] = biological target: Paired box protein Pax-8 (Homo sapiens, UniProt Q06710); experiment: inhibitors of PAX8-driven TPO luciferase reporter, dose response, RMG-I cells, cherry-pick (AID 687027); type: functional, cell-based;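 note: luciferase reporter driven by Pax8 target thyroperoxidase promoter measured by SteadyGlo luminescence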
Paired box protein Pax-8, sequence (Q06710 whole entry): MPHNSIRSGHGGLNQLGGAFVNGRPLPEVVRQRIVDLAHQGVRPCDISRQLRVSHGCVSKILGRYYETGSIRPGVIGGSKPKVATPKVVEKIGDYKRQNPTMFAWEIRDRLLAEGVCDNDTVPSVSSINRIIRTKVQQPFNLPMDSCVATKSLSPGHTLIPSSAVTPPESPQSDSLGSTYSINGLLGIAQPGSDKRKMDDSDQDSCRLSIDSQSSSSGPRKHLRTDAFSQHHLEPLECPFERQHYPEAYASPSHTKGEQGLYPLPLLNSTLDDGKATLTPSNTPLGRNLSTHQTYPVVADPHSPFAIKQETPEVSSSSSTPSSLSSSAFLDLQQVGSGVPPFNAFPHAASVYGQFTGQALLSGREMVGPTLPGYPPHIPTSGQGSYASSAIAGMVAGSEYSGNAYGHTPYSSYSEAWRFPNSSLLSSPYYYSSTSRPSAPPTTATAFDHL

[19] = HEK293T cytotoxicity, dose response, cytotoxicity control for miR-122 modulator project, cell-based, activator set, cherry-pick (AID 720690); type: functional;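 note: HEK293T human cells scored for general mammalian cytotoxicity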
[20] = biological target: 1-phosphatidylinositol 4,5-bisphosphate phosphodiesterase gamma-1 (Homo sapiens, UniProt P19174); experiment: Counterscreen for inhibitors of phospholipase C isozymes (PLC-B3): Fluorescence-based biochemical high throughput dose response assay to identify inhibitors of phospholipase C isozymes (PLC-gamma1).
1-phosphatidylinositol 4,5-bisphosphate phosphodiesterase gamma-1, sequence (P19174 whole entry): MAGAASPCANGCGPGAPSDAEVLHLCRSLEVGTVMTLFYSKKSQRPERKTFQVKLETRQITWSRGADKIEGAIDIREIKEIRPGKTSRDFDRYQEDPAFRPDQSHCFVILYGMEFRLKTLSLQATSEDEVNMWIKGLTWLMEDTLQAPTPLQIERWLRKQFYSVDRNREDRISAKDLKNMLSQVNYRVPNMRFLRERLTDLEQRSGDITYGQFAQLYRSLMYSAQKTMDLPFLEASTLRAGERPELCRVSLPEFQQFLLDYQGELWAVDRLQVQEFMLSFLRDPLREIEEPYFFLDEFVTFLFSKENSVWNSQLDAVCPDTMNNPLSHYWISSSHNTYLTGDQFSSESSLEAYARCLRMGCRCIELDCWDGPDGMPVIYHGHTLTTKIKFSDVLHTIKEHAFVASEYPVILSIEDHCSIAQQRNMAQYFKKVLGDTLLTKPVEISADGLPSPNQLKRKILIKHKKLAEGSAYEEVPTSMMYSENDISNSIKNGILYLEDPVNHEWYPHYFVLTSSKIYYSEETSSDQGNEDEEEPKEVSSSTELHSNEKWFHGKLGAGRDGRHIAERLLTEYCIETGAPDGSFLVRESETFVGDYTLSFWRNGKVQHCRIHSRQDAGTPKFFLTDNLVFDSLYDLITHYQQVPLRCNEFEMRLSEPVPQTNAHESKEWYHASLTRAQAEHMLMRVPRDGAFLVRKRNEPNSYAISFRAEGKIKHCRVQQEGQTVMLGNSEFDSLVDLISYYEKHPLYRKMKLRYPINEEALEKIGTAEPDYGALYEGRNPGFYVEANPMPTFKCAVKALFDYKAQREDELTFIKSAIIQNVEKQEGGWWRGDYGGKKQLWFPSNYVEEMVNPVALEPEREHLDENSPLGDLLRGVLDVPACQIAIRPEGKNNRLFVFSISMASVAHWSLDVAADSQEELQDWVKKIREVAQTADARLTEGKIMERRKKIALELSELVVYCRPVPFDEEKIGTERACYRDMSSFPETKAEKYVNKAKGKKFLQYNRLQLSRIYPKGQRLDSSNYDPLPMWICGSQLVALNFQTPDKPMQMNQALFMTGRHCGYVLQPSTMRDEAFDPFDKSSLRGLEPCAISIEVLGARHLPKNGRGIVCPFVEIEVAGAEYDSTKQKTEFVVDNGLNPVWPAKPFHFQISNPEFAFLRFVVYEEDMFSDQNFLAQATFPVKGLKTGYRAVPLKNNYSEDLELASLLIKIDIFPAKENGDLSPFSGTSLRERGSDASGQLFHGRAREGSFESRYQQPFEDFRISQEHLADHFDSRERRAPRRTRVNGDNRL

[21] = biological target: 1-phosphatidylinositol 4,5-bisphosphate phosphodiesterase beta-3 (Homo sapiens, UniProt Q01970); experiment: Fluorescence-based biochemical high throughput dose response assay to identify inhibitors of phospholipase C isozymes (PLC-B3).
1-phosphatidylinositol 4,5-bisphosphate phosphodiesterase beta-3, sequence (Q01970 whole entry): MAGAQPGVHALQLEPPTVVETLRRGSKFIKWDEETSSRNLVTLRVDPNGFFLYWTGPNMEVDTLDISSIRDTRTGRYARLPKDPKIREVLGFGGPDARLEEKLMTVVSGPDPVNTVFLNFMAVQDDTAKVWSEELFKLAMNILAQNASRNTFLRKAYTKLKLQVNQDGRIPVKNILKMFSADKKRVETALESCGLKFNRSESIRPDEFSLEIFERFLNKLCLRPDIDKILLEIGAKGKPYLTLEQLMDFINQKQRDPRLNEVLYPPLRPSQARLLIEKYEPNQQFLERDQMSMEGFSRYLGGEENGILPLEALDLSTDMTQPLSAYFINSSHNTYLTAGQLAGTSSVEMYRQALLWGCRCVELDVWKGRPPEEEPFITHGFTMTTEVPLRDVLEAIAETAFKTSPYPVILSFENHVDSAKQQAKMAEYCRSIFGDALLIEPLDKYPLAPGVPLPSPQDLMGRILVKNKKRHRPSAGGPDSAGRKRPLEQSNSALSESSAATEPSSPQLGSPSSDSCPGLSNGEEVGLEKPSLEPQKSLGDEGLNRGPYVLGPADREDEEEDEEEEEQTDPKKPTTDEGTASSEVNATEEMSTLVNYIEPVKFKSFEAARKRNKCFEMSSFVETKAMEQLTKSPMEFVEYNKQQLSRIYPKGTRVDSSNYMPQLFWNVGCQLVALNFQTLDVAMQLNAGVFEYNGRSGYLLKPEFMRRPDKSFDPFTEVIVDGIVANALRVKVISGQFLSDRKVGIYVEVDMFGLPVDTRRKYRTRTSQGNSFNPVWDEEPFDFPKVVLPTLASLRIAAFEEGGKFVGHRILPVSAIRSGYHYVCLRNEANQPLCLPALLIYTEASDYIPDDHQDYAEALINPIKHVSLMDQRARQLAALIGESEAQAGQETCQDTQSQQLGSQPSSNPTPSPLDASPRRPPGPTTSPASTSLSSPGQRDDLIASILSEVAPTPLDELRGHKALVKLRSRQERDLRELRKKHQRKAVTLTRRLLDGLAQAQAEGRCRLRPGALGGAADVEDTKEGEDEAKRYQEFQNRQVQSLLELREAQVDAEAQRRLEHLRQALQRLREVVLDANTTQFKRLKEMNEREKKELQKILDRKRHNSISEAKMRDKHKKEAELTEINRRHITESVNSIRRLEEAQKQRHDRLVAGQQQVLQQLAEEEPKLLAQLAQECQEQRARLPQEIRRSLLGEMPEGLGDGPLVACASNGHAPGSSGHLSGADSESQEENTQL

[22] = T. cruzi intracellular amastigote growth inhibition, dose response, imaging, CA-I/72 strain, bovine embryo skeletal muscle, dry powder (AID 651885); type: functional, cell-based
[23] = HepG2 cell cytotoxicity, dose response, cytotoxicity control, cherry-picked samples (AID 1159577); type: functional, cell-based
[24] = P. falciparum Dd2 growth inhibitors, dose response, SYBR Green, cherry-picked samples (AID 1159567); type: functional, cell-based

SMILES: COc1cccc(CC(=O)Nc2ccc3c(c2)c(=O)n(C)n3-c2ccc(C(C)(C)C)cc2)c1
- IC50 [1]: > 67.6 µM (inactive)
- EC50 [2]: > 67.6 µM (inactive)

SMILES: CN(C)CCNC(=O)c1cccc(-c2cnc3c(NC=O)cc(-c4ccccc4F)cn23)c1
- AC50 [3]: 3.69 µM (active)
- AC50 [4]: 21.7 µM (active)

SMILES: Cc1ccc(-c2noc(-c3cccs3)n2)cc1
- EC50 [5]: 3.98 µM (active)
- AC50 [6]: 22.3 µM (active)
- EC50 [7]: > 67.5 µM (inactive)
- AC50 [8]: > 52 µM (inactive)
- EC50 [9]: > 112 µM (not active)
- IC50 [10]: 18.8 µM (active)
- EC50 [11]: > 67.5 µM (inactive)
- AC50 [12]: 14.4 µM (active)

SMILES: O=C(N/N=C/c1cccs1)c1[nH]nc2c1CCC2
- EC50 [13]: > 67.5 µM (inactive)
- EC50 [14]: 11 µM (inconclusive)

SMILES: COc1ccc(NC(=O)N2CC(=O)N3[C@@H](CO)[C@@H](c4ccc(/C=C/c5ccccc5)cc4)[C@@H]3C2)cc1
- AC50 [15]: 54.8 µM (active)
- AC50 [16]: 39.1 µM (active)
- AC50 [17]: 7.22 µM (active)
- AC50 [18]: 5.52 µM (active)

SMILES: COc1ccc(C#Cc2ccc3c(c2)O[C@H](CN(C)C(=O)CN2CCOCC2)[C@@H](C)CN([C@@H](C)CO)S3(=O)=O)cc1
- AC50 [19]: 43.2 µM (active)

SMILES: O=S(=O)(CS(=O)(=O)c1ccc(Br)cc1)c1ccc(Br)cc1
- IC50 [20]: 30.4 µM (inactive)
- IC50 [21]: > 123 µM (inactive)

SMILES: CC(C)N1C[C@H](C)[C@@H](CN(C)C(=O)OC(C)(C)C)Oc2c(NC(=O)c3cccnc3)cccc2C1=O
- IC50 [22]: > 20 µM (inactive)

SMILES: C[C@H]1CN([C@@H](C)CO)S(=O)(=O)c2ccc(C#CC3CCCCC3)cc2O[C@@H]1CN(C)C
- AC50 [19]: 26.4 µM (active)

SMILES: COc1cc(CN2C[C@@H]3N[C@H](C2)[C@@H]3c2ccc(-c3ccc(C#N)cc3)cc2)cc(OC)c1
- AC50 [23]: 10.5 µM (active)
- AC50 [24]: 3.05 µM (active)

SMILES: CO[C@H]1CN(C)C(=O)c2ccc(NC(=O)c3ccc(Oc4ccccc4)cc3)cc2OC[C@H](C)NC[C@H]1C
- AC50 [23]: 11.7 µM (active)
- AC50 [24]: 6.48 µM (active)
